Measured values published in ChEMBL document CHEMBL2321847, “Ligand-based discovery of N-(1,3-dioxo-1H,3H-benzo[de]isochromen-5-yl)-carboxamide and sulfonamide derivatives as thymidylate synthase A inhibitors” (Bioorg Med Chem Lett, 2013).
pKi: −log10 of the molar value.

Legend:
Thymidylate synthase [1] = target: Thymidylate synthase (Escherichia coli K-12, UniProt P0A884); assay: Inhibition of Escherichia coli thymidylate synthase A
Thymidylate synthase [2] = target: Thymidylate synthase (Homo sapiens, UniProt P04818)
Description: Inhibition of human thymidylate synthase A

Dihydrofolate reductase = target: T1, Dihydrofolate reductase (Homo sapiens, UniProt P00374); assay: Inhibition of human DHFR
T1 sequence (P00374 whole entry): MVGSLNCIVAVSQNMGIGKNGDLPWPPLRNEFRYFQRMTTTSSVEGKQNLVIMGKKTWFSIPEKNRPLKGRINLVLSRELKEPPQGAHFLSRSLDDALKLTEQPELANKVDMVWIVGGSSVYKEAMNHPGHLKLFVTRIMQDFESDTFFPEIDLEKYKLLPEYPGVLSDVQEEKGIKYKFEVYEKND

Sequence of Thymidylate synthase (Escherichia coli K-12, UniProt P0A884) (P0A884 whole entry): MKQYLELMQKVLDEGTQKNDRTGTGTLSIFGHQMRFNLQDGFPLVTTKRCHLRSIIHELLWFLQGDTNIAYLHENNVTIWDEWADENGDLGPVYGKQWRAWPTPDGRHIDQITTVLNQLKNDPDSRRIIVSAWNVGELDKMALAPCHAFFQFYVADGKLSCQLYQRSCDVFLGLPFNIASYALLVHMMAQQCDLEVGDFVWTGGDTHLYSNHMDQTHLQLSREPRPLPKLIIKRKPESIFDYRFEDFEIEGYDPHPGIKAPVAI
Sequence of Thymidylate synthase (Homo sapiens, UniProt P04818) (P04818 whole entry): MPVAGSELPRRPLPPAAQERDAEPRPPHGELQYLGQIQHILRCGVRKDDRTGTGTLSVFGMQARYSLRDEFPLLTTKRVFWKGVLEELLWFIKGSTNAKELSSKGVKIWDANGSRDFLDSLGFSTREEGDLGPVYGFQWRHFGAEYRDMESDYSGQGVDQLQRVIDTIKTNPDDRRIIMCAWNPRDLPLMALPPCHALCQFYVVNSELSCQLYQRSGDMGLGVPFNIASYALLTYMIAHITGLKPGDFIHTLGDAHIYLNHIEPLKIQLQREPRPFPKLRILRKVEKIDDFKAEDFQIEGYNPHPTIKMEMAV

pKi (Thymidylate synthase [1]) | pKi (Thymidylate synthase [2]) | pKi (Dihydrofolate reductase) | SMILES
< 3.52 | 4.33 |  | O=C1OCc2cccc3cccc1c23
< 3.53 | < 3.51 |  | N#CC(C#N)=c1c(=O)c2cccc3cccc1c32
5.72 |  |  | Cn1cc(-c2ccc(S(=O)(=O)Nc3cc4c5c(cccc5c3)C(=O)OC4=O)s2)cc1C(F)(F)F
< 3.58 | 5.38 |  | O=C1Oc2cccc3cccc1c23
< 3.71 | 5.51 |  | O=C1Sc2cccc3cccc1c23
< 3.99 | < 4.01 |  | O=C1C(=O)c2ccc(Oc3ccc([N+](=O)[O-])cc3)c3cccc1c23
< 3.53 | < 3.51 |  | O=C1/C(=N/c2ccccc2)c2cccc3cccc1c23
< 3.53 | 5.51 |  | Cc1ccc2c3c(cccc13)C(=O)CC2
< 3.23 | 4.48 |  | CC1(C)C(=O)c2cccc3cccc(c23)C1=O
< 3.53 | < 3.51 |  | O=C1OC(c2ccccc2)(c2ccccc2)c2cccc3cccc1c23
3.98 |  |  | O=C1OC(=O)c2ccc(Cl)c3cccc1c23
4.57 |  |  | O=C(O)c1ccc2c3c(cccc13)C(=O)OC2=O
< 3.11 | < 3.08 |  | O=C1OC(=O)c2ccc(S(=O)(=O)O)c3cccc1c23
< 3.35 | < 3.32 |  | O=C1OC(=O)c2ccc(SCCO)c3cccc1c23
< 3.23 |  |  | CCOC(=O)CSc1ccc2c3c(cccc13)C(=O)OC2=O
< 3.82 | < 3.80 |  | Nc1ccc2c3c(cccc13)C(=O)OC2=O
< 3.71 | < 3.69 |  | O=C1OC(=O)c2cc([N+](=O)[O-])cc3cccc1c23
5.17 | < 3.39 |  | Nc1cc2c3c(cccc3c1)C(=O)OC2=O
5.14 |  | < 3.96 | O=C(Nc1cc2c3c(cccc3c1)C(=O)OC2=O)c1cccc([N+](=O)[O-])c1
4.77 |  |  | O=C(Nc1cc2c3c(cccc3c1)C(=O)OC2=O)c1ccc([N+](=O)[O-])cc1
4.67 | < 3.08 |  | Nc1ccc(C(=O)Nc2cc3c4c(cccc4c2)C(=O)OC3=O)cc1
5.19 | < 3.69 |  | O=C(Nc1cc2c3c(cccc3c1)C(=O)OC2=O)c1ccc(C(F)(F)F)cc1
5.36 |  |  | O=C(Nc1cc2c3c(cccc3c1)C(=O)OC2=O)c1cccc(C(F)(F)F)c1

pKi (Thymidylate synthase [1]) | pKi (Thymidylate synthase [2]) | pKi (Dihydrofolate reductase) | SMILES
5.40 |  |  | O=C(Nc1cc2c3c(cccc3c1)C(=O)OC2=O)c1ccc(Cl)c([N+](=O)[O-])c1
5.17 |  |  | O=C(Nc1cc2c3c(cccc3c1)C(=O)OC2=O)c1ccc([N+](=O)[O-])o1
5.28 |  |  | O=C(Cc1cccs1)Nc1cc2c3c(cccc3c1)C(=O)OC2=O
5.19 | < 3.39 | < 4.26 | O=C(Nc1cc2c3c(cccc3c1)C(=O)OC2=O)c1sc2ccccc2c1Cl
5.15 |  |  | COC(=O)CCC(=O)Nc1cc2c3c(cccc3c1)C(=O)OC2=O
5.38 |  |  | O=C1OC(=O)c2cc(NS(=O)(=O)c3ccccc3)cc3cccc1c23
5.68 |  |  | O=C1OC(=O)c2cc(NS(=O)(=O)c3cccc([N+](=O)[O-])c3)cc3cccc1c23
5.92 |  |  | O=C1OC(=O)c2cc(NS(=O)(=O)c3ccc([N+](=O)[O-])cc3)cc3cccc1c23
5.66 |  |  | O=C1OC(=O)c2cc(NS(=O)(=O)c3cccs3)cc3cccc1c23
5.89 |  |  | O=C1OC(=O)c2cc(NS(=O)(=O)c3ccc(C(F)(F)F)cc3[N+](=O)[O-])cc3cccc1c23
5.92 |  |  | O=C1OC(=O)c2cc(NS(=O)(=O)c3ccc(S(=O)(=O)c4ccccc4)s3)cc3cccc1c23
5.34 |  |  | O=C1OC(=O)c2cc(NS(=O)(=O)c3cc(Cl)sc3Cl)cc3cccc1c23
5.96 |  |  | O=C1OC(=O)c2cc(NS(=O)(=O)c3cccc4ccccc34)cc3cccc1c23
5.54 |  |  | O=C1OC(=O)c2cc(NS(=O)(=O)c3cccc4cccnc34)cc3cccc1c23
6.05 |  |  | O=C1OC(=O)c2cc(NS(=O)(=O)c3cccc4nsnc34)cc3cccc1c23
5.13 |  |  | O=C(Nc1cc2c3c(cccc3c1)C(=O)OC2=O)c1ccc2c(c1)OCO2
4.49 | < 3.21 |  | O=C(/C=C/c1ccccc1Cl)Nc1cc2c3c(cccc3c1)C(=O)OC2=O
4.97 | < 3.69 |  | O=C(/C=C/c1cccc(C(F)(F)F)c1)Nc1cc2c3c(cccc3c1)C(=O)OC2=O
4.35 | < 3.08 |  | Cc1onc(-c2ccccc2Cl)c1C(=O)Nc1cc2c3c(cccc3c1)C(=O)OC2=O
5.21 |  | < 3.48 | Cc1onc(-c2c(F)cccc2Cl)c1C(=O)Nc1cc2c3c(cccc3c1)C(=O)OC2=O
6.52 |  |  | O=C1OC(=O)c2cc(NS(=O)(=O)/C=C/c3ccccc3)cc3cccc1c23
< 3.53 |  |  | O=C1OC(=O)c2cccc3cccc1c23 [1,8-NAPHTHALIC ANHYDRIDE]
